Measured values published in patent US20060009478A1, “Methods for the treatment of back pain” (priority 2003, published 2006).

Key:
[1] = tested on: patients with moderate to severe chronic low back pain; assay: AE days and average AE days of opioid associated AEs, low back pain study; conditions: ITT population
[2] = tested on: patients with moderate to severe chronic low back pain; assay: Quality of analgesia, low back pain study; assay type: in vivo, human; conditions: LOCF, ITT
Protocol: Quality of analgesia was assessed at clinic visits during the titration and fixed-dose periods. The patient was prompted with the question, “How would you rate the quality of your pain relief at this time?” and responses were selected from poor, fair, good, very good, and excellent.
Global assessment and quality of analgesia ratings were summarized descriptively by treatment group for both the titration and fixed-dose periods. Treatments were compared at each visit in the fixed-dose period, globally and in pairwise fashion, using the Cochran-Mantel-Haenszel row mean scores (CMH-RMS) test, using equally spaced scores.

[3] = (total days with AE)/(days on study drug)
[4] = AE stop date − AE start date + 1

Structure (SMILES): COc1ccc2c3c1O[C@H]1C(=O)CC[C@@]4(O)[C@@H](C2)N(C)CC[C@]314 [OXY QID, oxycodone]
- Average AE day for constipation, maximum [1, 3]: (1.13)
- Average AE day for constipation, mean [1, 3]: 0.24
- Average AE day for constipation, median [1, 3]: 0.05
- Average AE day for constipation, minimum [1, 3]: 0.00
- Average AE day for dizziness, maximum [1, 3]: 1.73
- Average AE day for dizziness, mean (SD) [1, 3]: 0.14 (0.281)
- Average AE day for dizziness, median [1, 3]: 0.01
- Average AE day for dizziness, minimum [1, 3]: 0.00
- Average AE day for nausea, maximum [1, 3]: 2.00
- Average AE day for nausea, mean (SD) [1, 3]: 0.14 (0.266)
- Average AE day for nausea, median [1, 3]: 0.03
- Average AE day for nausea, minimum [1, 3]: 0.00
- Average AE day for pruritus, maximum [1, 3]: 2.00
- Average AE day for pruritus, mean (SD) [1, 3]: 0.23 (0.355)
- Average AE day for pruritus, median [1, 3]: 0.03
- Average AE day for pruritus, minimum [1, 3]: 0.00
- Average AE day for somnolence, maximum [1, 3]: 2.00
- Average AE day for somnolence, mean (SD) [1, 3]: 0.31 (0.392)
- Average AE day for somnolence, median [1, 3]: 0.11
- Average AE day for somnolence, minimum [1, 3]: 0.00
- Average AE day for vomiting, maximum [1, 3]: 1.00
- Average AE day for vomiting, mean (SD) [1, 3]: 0.02 (0.087)
- Average AE day for vomiting, median [1, 3]: 0.00
- Average AE day for vomiting, minimum [1, 3]: 0.00
- AE day for constipation, maximum [1, 4]: 114.00
- AE day for constipation, mean (SD) [1, 4]: 17.59 (27.733)
- AE day for constipation, median [1, 4]: 3.00
- AE day for constipation, minimum [1, 4]: 0.00
- AE day for dizziness, maximum [1, 4]: 114.00
- AE day for dizziness, mean (SD) [1, 4]: 8.59 (18.871)
- AE day for dizziness, median [1, 4]: 1.00
- AE day for dizziness, minimum [1, 4]: 0.00
- AE day for nausea, maximum [1, 4]: 118.00
- AE day for nausea, mean (SD) [1, 4]: 8.16 (16.511)
- AE day for nausea, median [1, 4]: 2.00
- AE day for nausea, minimum [1, 4]: 0.00
- AE day for pruritus, maximum [1, 4]: 124.00
- AE day for pruritus, mean (SD) [1, 4]: 15.92 (28.817)
- AE day for pruritus, median [1, 4]: 2.00
- AE day for pruritus, minimum [1, 4]: 0.00
- AE day for somnolence, maximum [1, 4]: 123.00
- AE day for somnolence, mean (SD) [1, 4]: 21.53 (32.137)
- AE day for somnolence, median [1, 4]: 6.00
- AE day for somnolence, minimum [1, 4]: 0.00
- AE day for vomiting, maximum [1, 4]: 18.00
- AE day for vomiting, mean (SD) [1, 4]: 1.09 (2.839)
- AE day for vomiting, median [1, 4]: 0.00
- AE day for vomiting, minimum [1, 4]: 0.00
- Quality of analgesia EXCELLENT (4), number of patients ([2]; fixed dose period week 1): 25
- Quality of analgesia EXCELLENT (4), percent of patients ([2]; fixed dose period week 1): 12.1%
- Quality of analgesia FAIR (1), number of patients ([2]; fixed dose period week 1): 26
- Quality of analgesia FAIR (1), percent of patients ([2]; fixed dose period week 1): 12.6%
- Quality of analgesia GOOD (2), number of patients ([2]; fixed dose period week 1): 69
- Quality of analgesia GOOD (2), percent of patients ([2]; fixed dose period week 1): 33.5%
- Quality of analgesia POOR (0), number of patients ([2]; fixed dose period week 1): 33
- Quality of analgesia POOR (0), percent of patients ([2]; fixed dose period week 1): 16.0%
- Quality of analgesia VERY GOOD (3), number of patients ([2]; fixed dose period week 1): 52
- Quality of analgesia VERY GOOD (3), percent of patients ([2]; fixed dose period week 1): 25.2%
- Quality of analgesia EXCELLENT (4), number of patients ([2]; fixed dose period week 2): 24
- Quality of analgesia EXCELLENT (4), percent of patients ([2]; fixed dose period week 2): 11.7%
- Quality of analgesia FAIR (1), number of patients ([2]; fixed dose period week 2): 27
- Quality of analgesia FAIR (1), percent of patients ([2]; fixed dose period week 2): 13.1%
- Quality of analgesia GOOD (2), number of patients ([2]; fixed dose period week 2): 70
- Quality of analgesia GOOD (2), percent of patients ([2]; fixed dose period week 2): 34.0%
- Quality of analgesia POOR (0), number of patients ([2]; fixed dose period week 2): 32
- Quality of analgesia POOR (0), percent of patients ([2]; fixed dose period week 2): 15.5%
- Quality of analgesia VERY GOOD (3), number of patients ([2]; fixed dose period week 2): 52
- Quality of analgesia VERY GOOD (3), percent of patients ([2]; fixed dose period week 2): 25.2%
- Quality of analgesia EXCELLENT (4), number of patients ([2]; fixed dose period week 4): 20
- Quality of analgesia EXCELLENT (4), percent of patients ([2]; fixed dose period week 4): 9.7%
- Quality of analgesia FAIR (1), number of patients ([2]; fixed dose period week 4): 28
- Quality of analgesia FAIR (1), percent of patients ([2]; fixed dose period week 4): 13.6%
- Quality of analgesia GOOD (2), number of patients ([2]; fixed dose period week 4): 63
- Quality of analgesia GOOD (2), percent of patients ([2]; fixed dose period week 4): 30.6%
- Quality of analgesia POOR (0), number of patients ([2]; fixed dose period week 4): 35
- Quality of analgesia POOR (0), percent of patients ([2]; fixed dose period week 4): 17.0%
- Quality of analgesia VERY GOOD (3), number of patients ([2]; fixed dose period week 4): 59
- Quality of analgesia VERY GOOD (3), percent of patients ([2]; fixed dose period week 4): 28.6%
- Quality of analgesia EXCELLENT (4), number of patients ([2]; fixed dose period week 6): 24
- Quality of analgesia EXCELLENT (4), percent of patients ([2]; fixed dose period week 6): 11.7%
- Quality of analgesia FAIR (1), number of patients ([2]; fixed dose period week 6): 34
- Quality of analgesia FAIR (1), percent of patients ([2]; fixed dose period week 6): 16.5%
- Quality of analgesia GOOD (2), number of patients ([2]; fixed dose period week 6): 67
- Quality of analgesia GOOD (2), percent of patients ([2]; fixed dose period week 6): 32.5%
- Quality of analgesia POOR (0), number of patients ([2]; fixed dose period week 6): 36
- Quality of analgesia POOR (0), percent of patients ([2]; fixed dose period week 6): 17.5%
- Quality of analgesia VERY GOOD (3), number of patients ([2]; fixed dose period week 6): 44
- Quality of analgesia VERY GOOD (3), percent of patients ([2]; fixed dose period week 6): 21.4%
- Quality of analgesia EXCELLENT (4), number of patients ([2]; fixed dose period week 8): 24
- Quality of analgesia EXCELLENT (4), percent of patients ([2]; fixed dose period week 8): 11.7%
- Quality of analgesia FAIR (1), number of patients ([2]; fixed dose period week 8): 35
- Quality of analgesia FAIR (1), percent of patients ([2]; fixed dose period week 8): 17.0%
- Quality of analgesia GOOD (2), number of patients ([2]; fixed dose period week 8): 72
- Quality of analgesia GOOD (2), percent of patients ([2]; fixed dose period week 8): 35.0%
- Quality of analgesia POOR (0), number of patients ([2]; fixed dose period week 8): 33
- Quality of analgesia POOR (0), percent of patients ([2]; fixed dose period week 8): 16.0%
- Quality of analgesia VERY GOOD (3), number of patients ([2]; fixed dose period week 8): 41
- Quality of analgesia VERY GOOD (3), percent of patients ([2]; fixed dose period week 8): 19.9%
- Quality of analgesia EXCELLENT (4), number of patients ([2]; fixed dose period week 10): 24
- Quality of analgesia EXCELLENT (4), percent of patients ([2]; fixed dose period week 10): 11.7%
- Quality of analgesia FAIR (1), number of patients ([2]; fixed dose period week 10): 35
- Quality of analgesia FAIR (1), percent of patients ([2]; fixed dose period week 10): 17.0%
- Quality of analgesia GOOD (2), number of patients ([2]; fixed dose period week 10): 66
- Quality of analgesia GOOD (2), percent of patients ([2]; fixed dose period week 10): 32.0%
- Quality of analgesia POOR (0), number of patients ([2]; fixed dose period week 10): 35
- Quality of analgesia POOR (0), percent of patients ([2]; fixed dose period week 10): 17.0%
- Quality of analgesia VERY GOOD (3), number of patients ([2]; fixed dose period week 10): 45
- Quality of analgesia VERY GOOD (3), percent of patients ([2]; fixed dose period week 10): 21.8%
- Quality of analgesia EXCELLENT (4), number of patients ([2]; fixed dose period week 12): 21
- Quality of analgesia EXCELLENT (4), percent of patients ([2]; fixed dose period week 12): 10.2%
- Quality of analgesia FAIR (1), number of patients ([2]; fixed dose period week 12): 40
- Quality of analgesia FAIR (1), percent of patients ([2]; fixed dose period week 12): 19.4%
- Quality of analgesia GOOD (2), number of patients ([2]; fixed dose period week 12): 64
- Quality of analgesia GOOD (2), percent of patients ([2]; fixed dose period week 12): 31.1%
- Quality of analgesia POOR (0), number of patients ([2]; fixed dose period week 12): 37
- Quality of analgesia POOR (0), percent of patients ([2]; fixed dose period week 12): 18.0%
- Quality of analgesia VERY GOOD (3), number of patients ([2]; fixed dose period week 12): 43
- Quality of analgesia VERY GOOD (3), percent of patients ([2]; fixed dose period week 12): 20.9%
